According to ChEMBL document CHEMBL4118167, “Discovery of bicyclo[3,3,1]non-2-ene as a novel skeleton for HIF-1 inhibitors” (Bioorg Med Chem, 2018):
The source made the active and inactive calls. No cut-off for these calls is given here.

Columns and labels:
Assay type in all cases: cell-based
[1] = biological target: T1, HIF1A/p300/CREB-binding protein (Homo sapiens, UniProt Q09472+Q16665+Q92793); test: Inhibition of HIF-1alpha/p300/CBP PPI in human HeLa cells assessed as reduction in HIF-1alpha proteasomal degradation after 12 hrs under hypoxic condition in presence of proteasome inhibitor MG132 by Western blot analysis
HeLa = test: Cytotoxicity against human HeLa cells at 0.3 to 100 uM
[2] = biological target: T1, HIF1A/p300/CREB-binding protein; test: Inhibition of HIF-1alpha/p300/CBP (unknown origin) transcriptional activity expressed in human HeLa cells expressing HRE-Luc/CMV-Luc after 12 hrs under hypoxic condition by dual luciferase reporter gene assay
[3] = biological target: T1, HIF1A/p300/CREB-binding protein; test: Inhibition of HIF-1alpha/p300/CBP PPI in human HeLa cells assessed as […] of HIF-1alpha accumulation at 3 to 30 uM after 12 hrs under hypoxic condition by Western blot analysis
[4] = biological target: T1, HIF1A/p300/CREB-binding protein; test: Inhibition of HIF-1alpha/p300/CBP PPI in human HeLa cells assessed as HIF-1alpha mRNA levels by measuring HIF-1alpha to beta2-microglobulin ratio at 30 uM after 12 hrs under hypoxic condition by qPCR analysis (reference value: 0.90 +/- 0.23)

Row | Compound | inhibition [1] | IC50 [2] | inhibition [3] | Ratio [4] | Activity (HeLa)
1 | CC(C)CC(=O)OC1=C(C(=O)OCc2ccccc2)C2CCCC(OC(=O)CC(C)C)(C1)C2 (configuration not stated) | Dose-dependent effect | 3 µM | inactive | 1.2 | Non-Toxic
2 | OCc1ccc(-c2nn(Cc3ccccc3)c3ccccc23)o1 |  |  |  |  | Non-Toxic
3 | CC(C)CCOC(=O)C1=C(OC(=O)CC(C)C)CC2(OC(=O)CC(C)C)CCCC1C2 (configuration not stated) |  | 6.3 µM |  |  | Non-Toxic

Continued, in another order:

Row | inhibition [1] | IC50 [2] | inhibition [3] | Ratio [4] | Compound | Activity (HeLa)
4 |  | > 100 µM |  |  | O=C(OCc1ccccc1)C1=C(O)CC2(O)CCCC1C2 (configuration not stated) | Non-Toxic
5 |  | > 100 µM |  |  | CC(C)CCOC(=O)C1=C(O)CC2(O)CCCC1C2 (configuration not stated) | Non-Toxic
